Entries after “also recorded” stand apart in the source; their conditions may differ. Like-named read-outs stand apart in the source and are kept apart here. No end group written: not given here.
Assays:
[1] = tested on: Clostridium welchii theta-toxin (pfoA); assay type: cell-based, Clostridium welchii strain 13
[2] = tested on: theta-toxin (pfoA) gene; assay type: cell-based, Clostridium welchii strain 13
[3] = read-out: IC50 of the inhibitory activity on the toxin production (pfoA expression amount as indicator)

Substance | agonist activity or antagonist activity (pfoA expression) [1] | IC50 (μM) [1] | other results
CLWAT [SEQ ID NO. 31 (Benzyloxycarbonyl group)] | antagonist activity | – | –
CLFWT [SEQ ID NO. 22 (Benzyloxycarbonyl group)] | antagonist activity | – | –
CLWFS [SEQ ID NO. 21 (Benzyloxycarbonyl group)] | antagonist | – | –
CLFWS [SEQ ID NO. 42 (Benzyloxycarbonyl group), reference compound] | – | (No activity) | –
AgrDcb-lactam: Peptide of Formula (2), CFWAH lactam obtained by ammonia conversion of AgrDcb-thiolactone (lactam (positions not given here); also: lactam from ammonia conversion of thiolactone, places not given here) | – | – | expression of the gene encoding theta-toxin (pfoA) (FIG. 9) [1]: inhibited; IC50 [1, 3]: 10000 nM
CLWFA [SEQ ID NO. 38 (Benzyloxycarbonyl group), reference compound] | agonist activity | (Agonist) | –
CAWFA [SEQ ID NO. 20 (Hydrogen atom)] | – | – | IC50 ([1]; read-out: IC50): 300 nM
CLWFT [SEQ ID NO. 40 (Benzyloxycarbonyl group), reference compound] | agonist activity | (Agonist) | –
ACFWAH [peptide 6n] | – | – | activity of inhibiting toxin expression (theta-toxin pfoA, Northern blot, FIG. 5) [2]: activity of inhibiting toxin expression was shown; also recorded: inhibitory activity
CAWAA [SEQ ID NO. 33 (Benzyloxycarbonyl group)] | antagonist activity | – | –
CLAFT [SEQ ID NO. 39 (Benzyloxycarbonyl group), reference compound] | neither the agonist activity nor antagonist activity | (No activity) | –
CAWFT [SEQ ID NO. 37 (Benzyloxycarbonyl group), reference compound] | – | (No activity) | –
CLWAS [SEQ ID NO. 35 (Benzyloxycarbonyl group)] | – | – | IC50 ([1]; read-out: IC50): 1000 nM
CLWYT [SEQ ID NO. 41 (Benzyloxycarbonyl group), reference compound] | – | (Agonist) | –
CLFWT [SEQ ID NO. 22 (Hydrogen atom)] | – | – | IC50 ([1]; read-out: IC50): 500 nM
Cys-Phe-Trp-Ala-His [cyclic CFWAH] | – | – | expression of the gene encoding theta-toxin (pfoA) (FIG. 9) [1]: inhibited; IC50 [1, 3]: 10000 nM; activity of inhibiting toxin expression (theta-toxin pfoA, Northern blot, FIG. 5) [2]: particularly high activity; also recorded: inhibitory activity

Source: US10214561B2, “Peptide having activity of inhibiting production of toxin by bacterium belonging to genus clostridium” (MIYARISAN PHARMACEUTICAL CO., LTD., priority 2014, dated 2019)
